Assay results from patent US6747149B2, “Glucamine salts for treating hepatitis virus infections” (G. D. Searle & Co., priority 1999, dated 2004).
Read-outs that look alike come from different tables or passages of the source. Marks after values point to notes of the source that are not given here.

How the values were obtained:
Hepatitis B Virus = test: Hepatitis B virus secretion by chronically HBV secreting HepG2.2.15 cells (immunoprecipitated virion DNA, PCR); assay type: cell-based; conditions: for [] for 90% HBV secretion inhibition: based upon duplicate PCR results; for Relative amount of HBV secreted As A % of Control: 3 days, preS1 immunoprecipitation, PCR
Experimental: (§1) The anti-hepatitis B virus activity and effect on cell viability of a number of different N-substituted-1,5-dideoxy-1,5-imino-D-glucitol compounds were assessed using an in vitro assay employing chronically hepatitis B virus secreting HepG2.2.15 cells. The method employed was essentially that described in Block et al. (1994) Proc. Natl. Acad. Sci. USA 91:2235-2239.

HepG2.2.15 Cells [1] = test: MTT-based colorimetric assay of cell viability
Experimental: as §1

[2] = test system: woodchuck hepatitis virus (WHV); test: Woodchuck model, N-nonyl-DNJ alone, BID oral dosing; assay type: in vivo
Excerpt: In order to evaluate the efficacy of N-nonyl-DNJ in combination with 3TC (or other nucleoside or nucleotide analogs) against Hepatitis B virus in a woodchuck animal model, an monotherapy experiment using N-nonyl-DNJ alone was first conducted. This was necessary to determine if N-nonyl-DNJ has any anti-HBV effect in the woodchuck and, if N-nonyl-DNJ has a beneficial effect, to design a combination study based on the dose-response relationship of this drug alone.
Therefore, five groups of four animals each (all groups had both sexes, all but the control had two of each sex) were assigned to 0, 12.5, 25, 50, and 100 mg/kg/day with BID oral dosing. These were lab-reared wild animals. All animals were infected with woodchuck hepatitis virus (WHV) as neonates, and had been tested positive on serological tests for WHV surface antigen. Blood samples were drawn one week prior to dosing (−1 week), immediately before dosing (0 weeks), weekly during dosing (1, 2, 3, and 4 weeks), and after the end of dosing (5, 6, 8, and 10 weeks).
(§2) There are two measures of drug efficacy: reduction in total HBV DNA (measured by quantitative PCR), and reduction in HBV DNA from capsids with intact surface glycoproteins, which is the active form of the virus (measured by an ELISA-like immune precipitation assay followed by quantitative PCR).
Before models are fitted to the data, a log transform was applied because: 1) the variation in IPDNA increases with increasing IPDNA values; the log transformation gives values with a nearly constant variation, and 2) it is expected that drug effects will appear as a constant multiplier of the IPDNA level. Because there are zero values of IPDNA, a small value (about ½ of the smallest non-zero value) was added to all values before the log transform.
Two approaches were used to model the changes in slope to week with dose of N-nonyl-DNJ: a linear modeling approach and a nonlinear model. Both approaches assume that the (linear) rate of change of the Log(IPDNA) measure over the dosing period is the “right” measure to reflect the effect of the drug on the virus. Both approaches are fit in stages, and the first stage is common to both approaches. First, a simple straight line regression model is fit using weeks 0-4 to predict log(IPDNA_+—10) separately for each animal by run combination. In the second stage, the response variable is the slope fitted in the first stage.
For the linear approach, a model is fit with slope to week as the response where run is considered a block, dose has a significant effect (almost all of this effect is due to a slope to dose), and the relevant error for testing the effect of dose is the variation among animals treated alike (after the adjustment for the runs as blocks). This is similar to using the calibration data within each run to first adjust each run's data to a common virus DNA concentration; the difference is that here the data from the woodchucks are used for the run adjustment rather than only the calibration data.
For the nonlinear approach, a four parameter logistic model is fit with the slope to week as the response and the dose as the predictor. Again, run is considered a block, but because no run has all weeks, it is not possible to fully reflect the blocking in the nonlinear approach. […]

HBV = test: Cell culture experiments with N-nonyl-DNJ: total HBV DNA and immune precipitated DNA; assay type: cell-based, hepatitis B virus
Excerpt: as §2

HepG2.2.15 Cells [3] = test: Viability of HepG2.2.15 cells, trypan blue exclusion; assay type: cell-based; conditions: 3 days, cells excluding trypan blue
Experimental: as §1

N-[2-(4-Trifluoromethylphenyl)-ethyl]-glucamine [Example 7]
[] for 90% HBV secretion inhibition (Hepatitis B Virus): >200** microgs per ml
[] for a 50% reduction in MMT (HepG2.2.15 Cells [1]; HepG2.2.15 cells): >200 microgs per ml

CCCCCCCCCN1C[C@H](O)[C@@H](O)[C@H](O)[C@H]1CO [N-nonyl-DNJ, N-(n-nonyl)-1,5-dideoxy-1,5-imino-D-glucitol]
effect on total HBV DNA measurements ([2]; all dose levels, pre-dose and dosed portions, quantitative PCR): no effect
average minimum slope observed ([2]; decrease of IPDNA, dosing weeks 0-4): 0.31 fewer Log(IPDNA g/mL)/week
decrease of IPDNA at average minimum slope ([2]; dosing weeks 0-4): about 25 %/week
slope of IPDNA levels over the dosing period due to dose or plasma level ([2]; weeks 0-4, straight line fitted per animal): significant difference in the slope
approximate effective monotherapy dose ([2]; woodchucks): about 16 mg/kg/day
effect on the immune precipitated DNA (IPDNA) (HBV): marked effect
effect on total HBV DNA (HBV): little or no effect

CCCCN1C[C@H](O)[C@@H](O)[C@H](O)[C@H]1CO [NBDNJ, N-(n-butyl-)-1,5-dideoxy-1,5-imino-D-glucitol]
[] for 90% HBV secretion inhibition (Hepatitis B Virus): 0.5-1.0* microgs per ml
Relative amount of HBV secreted As A % of Control (Hepatitis B Virus; concentration [200]): 37.0 +/− 13 (n = 15) %
Relative amount of HBV secreted As A % of Control (Hepatitis B Virus; concentration [200], listed as 1): 85.0 +/− 5 (n = 8) %
Relative amount of HBV secreted As A % of Control (Hepatitis B Virus; concentration [1000]): 3.2 +/− 5 (n = 15) %
Relative amount of HBV secreted As A % of Control (Hepatitis B Virus; concentration [1000], listed as 1): 35.0 +/− 6 (n = 8) %
[] for a 50% reduction in MMT (HepG2.2.15 Cells [1]): 100-200 microgs per ml

CCCCN1C[C@H](OC(C)=O)[C@@H](OC(C)=O)[C@H](OC(C)=O)[C@H]1COC(C)=O [Example 2, 1,5-(Butylimino)-1,5-dideoxy-D-glucitol, Tetraacetate]
% Viable +/− 1 S.D. (HepG2.2.15 Cells [3]; concentration [200]): 90 +/− 6 (n = 4) %
% Viable +/− 1 S.D. (HepG2.2.15 Cells [3]; concentration [1000]): 89 +/− 4 (n = 4) %
[] for 90% HBV secretion inhibition (Hepatitis B Virus): >200*s* microgs per ml
Relative amount of HBV secreted As A % of Control (Hepatitis B Virus; concentration [200]): 107.0 +/− 12 (n = 3) %
Relative amount of HBV secreted As A % of Control (Hepatitis B Virus; concentration [1000]): 38.0 +/− 15 (n = 3) %
